Experiments:
TLR8 = target: T1, TLR8 (Homo sapiens, UniProt Q9NR97); assay: Inhibition of R848-induced signaling in HEK-Blue hTLR8 cell line (Quanti-Blue); type: cell-based; details: HEK-Blue hTLR8 cell line; normalized, ligand+DMSO = 100% activity, untreated = 0%
T1 construct: host or cells: HEK-Blue hTLR8 (HEK293-derived SEAP reporter cells)
T1 sequence (Q9NR97 27-1041): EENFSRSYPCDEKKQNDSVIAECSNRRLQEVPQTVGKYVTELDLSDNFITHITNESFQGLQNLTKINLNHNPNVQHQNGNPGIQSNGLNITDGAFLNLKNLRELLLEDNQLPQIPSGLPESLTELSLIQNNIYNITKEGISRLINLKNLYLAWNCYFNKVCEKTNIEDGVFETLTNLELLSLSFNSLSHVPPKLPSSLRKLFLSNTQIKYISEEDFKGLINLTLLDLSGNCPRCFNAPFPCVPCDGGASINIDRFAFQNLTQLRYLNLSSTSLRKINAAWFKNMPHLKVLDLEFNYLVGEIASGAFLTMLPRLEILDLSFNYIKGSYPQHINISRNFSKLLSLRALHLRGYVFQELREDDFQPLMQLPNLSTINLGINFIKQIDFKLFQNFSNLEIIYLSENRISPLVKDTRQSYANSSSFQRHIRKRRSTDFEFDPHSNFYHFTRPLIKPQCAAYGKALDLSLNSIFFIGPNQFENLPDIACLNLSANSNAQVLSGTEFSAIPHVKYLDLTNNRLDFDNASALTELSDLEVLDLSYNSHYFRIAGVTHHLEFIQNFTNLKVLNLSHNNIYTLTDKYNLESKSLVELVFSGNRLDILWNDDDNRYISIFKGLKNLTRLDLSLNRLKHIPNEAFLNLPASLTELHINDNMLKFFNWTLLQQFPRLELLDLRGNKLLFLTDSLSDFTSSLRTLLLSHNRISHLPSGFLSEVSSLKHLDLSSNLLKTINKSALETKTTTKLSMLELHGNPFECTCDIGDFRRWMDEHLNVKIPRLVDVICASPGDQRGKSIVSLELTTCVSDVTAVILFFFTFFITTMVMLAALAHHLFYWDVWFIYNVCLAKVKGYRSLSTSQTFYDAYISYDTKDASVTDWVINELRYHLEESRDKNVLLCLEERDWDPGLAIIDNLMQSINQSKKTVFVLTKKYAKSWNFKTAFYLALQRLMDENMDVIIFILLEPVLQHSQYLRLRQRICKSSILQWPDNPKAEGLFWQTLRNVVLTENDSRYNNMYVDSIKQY
Experimental: (§1) HEK Blue hTLR8 cells or HEK Blue hTLR7 cells were cultured in DMEM medium supplemented with 10% fetal bovine serum, penicillin (100 U/mL) and streptomycin ([…]). Thereafter, cells were seeded in 96-well plate (45,000 cells per well), and were cultured for 24 hours in a humidified incubator (37° C., 5% CO2).
After 24 hours, the supernatant and suspending cells were aspirated and replaced with fresh serum-free DMEM.
(§2) After 24 hours, 50 μL of the medium was aspirated from each well and then added to a new 96-well plate, followed by the addition of 50 μL of Quanti-Blue in each well and the incubation at 37° C. in darkness. Changes in color would occur in the […] within 60 minutes, and the absorbance was measured at 620 nm by using the multi-mode plate reader Vrioskan Flash. Inhibition rate (%)=[R848 (OD620)−Compound (OD620)]/[R848 (OD620)−Control (OD620)]×100%. Among these, the control group was only added with the same amount of cells. Finally, the software Prism 6.0 was utilized to plot a graph and calculate IC50 values. Or, the activity of the cells treated with ligand and DMSO was defined as 100% activity, and the activity of the untreated cells was defined as 0% activity.

TLR7 = target: T2, TLR7 (Homo sapiens, UniProt Q9NYK1); assay: Inhibition of R848-induced signaling in HEK-Blue hTLR7 cell line (Quanti-Blue); type: cell-based
T2 construct: host or cells: HEK-Blue hTLR7 (HEK293-derived SEAP reporter cells)
T2 sequence (Q9NYK1 27-1049): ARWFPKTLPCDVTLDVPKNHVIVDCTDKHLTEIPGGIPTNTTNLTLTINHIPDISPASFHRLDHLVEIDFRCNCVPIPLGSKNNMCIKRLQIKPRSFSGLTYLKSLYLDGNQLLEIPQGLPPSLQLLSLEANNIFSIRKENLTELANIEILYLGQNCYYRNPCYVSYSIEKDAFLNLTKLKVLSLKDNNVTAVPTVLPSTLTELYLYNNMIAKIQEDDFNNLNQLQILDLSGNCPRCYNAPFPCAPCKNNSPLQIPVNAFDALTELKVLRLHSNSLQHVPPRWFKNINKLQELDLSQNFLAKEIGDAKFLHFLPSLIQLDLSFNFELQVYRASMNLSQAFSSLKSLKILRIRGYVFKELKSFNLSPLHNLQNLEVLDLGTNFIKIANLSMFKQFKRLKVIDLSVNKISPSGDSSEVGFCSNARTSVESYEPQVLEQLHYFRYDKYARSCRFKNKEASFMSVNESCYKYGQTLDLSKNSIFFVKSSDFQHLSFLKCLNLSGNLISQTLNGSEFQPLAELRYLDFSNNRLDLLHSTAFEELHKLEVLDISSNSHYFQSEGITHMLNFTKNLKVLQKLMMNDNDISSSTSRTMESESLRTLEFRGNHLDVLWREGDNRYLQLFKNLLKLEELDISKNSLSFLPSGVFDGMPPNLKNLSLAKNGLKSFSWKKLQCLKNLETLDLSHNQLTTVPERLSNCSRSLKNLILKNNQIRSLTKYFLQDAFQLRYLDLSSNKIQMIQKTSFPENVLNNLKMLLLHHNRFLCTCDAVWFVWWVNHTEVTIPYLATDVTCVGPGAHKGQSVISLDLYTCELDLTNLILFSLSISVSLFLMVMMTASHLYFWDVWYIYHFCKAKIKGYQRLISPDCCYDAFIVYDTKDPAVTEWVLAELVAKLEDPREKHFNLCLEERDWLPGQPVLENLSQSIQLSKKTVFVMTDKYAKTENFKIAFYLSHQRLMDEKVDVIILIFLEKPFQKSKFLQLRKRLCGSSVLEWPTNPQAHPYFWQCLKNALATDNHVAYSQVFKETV
Experimental: as §1
After 24 hours, the supernatant and suspending cells were aspirated and replaced with fresh serum-free DMEM. Cells were treated with 1 μg/mL of R848 (agonist of TLR7/8) or 5 μg/mL of ssRNA40/LyoVec or 5 μg/mL of ORN06/LyoVec (InvivoGen) and compounds with specified concentrations, and were placed in a humidified incubator (37° C., 5% CO2) for co-culture.
as §2

HEK-Blue hTLR8 cell line = assay: Toxicity test of compounds (CCK-8 cell viability); type: cell-based, human; parameters: key to WST1 (normalized toxicity effect): viability relative to control well (background-subtracted OD), 1 = control; details: normalized cell viability, HEK-Blue cell lines
Experimental: In the 96-well plate used for the above-mentioned activity test of compounds (remaining 50 μL of culture medium containing cells), 5 μL of CellCountingKit-8 (CCK-8) Supermix was added to each well. Note that the introduction of air bubbles into the wells should be avoided since the air bubbles would interfere with the detection of OD value.
The culture plate was incubated in an incubator for 1 to 4 hours,
The edge of the 96-well plate could be tapped gently before reading the plate, and then the absorbance at 450 nm was measured by using the multi-mode plate reader.
Cell viability (%) was determined using the following formula: cell viability (%)=([Compound well ([…])−Background well (OD450)]/[Control well ([…])−Background well (OD450)])×100%. Among these, the background well was only added with the medium and CCK-8 reagent, the control well was only added with the medium, cells, R848 and CCK-8, and the compound wells were added with the medium, cells, R848, compounds in different concentrations, and CCK-8.

Row | SMILES | Remaining R848-induced TLR8 signaling (normalized activity; ligand+DMSO = 1, untreated = 0) (TLR8) | TLR7 (normalized inhibitory effect on R848-induced signaling) (TLR7) | WST1 (normalized toxicity effect) (HEK-Blue hTLR8 cell line)
1 | CCOCc1nc(C#N)c(-c2ccccc2)n1CC(C)(C)O [Compound 38, 2-(ethoxymethyl)-1-(2-hydroxy-2-methylpropyl)-5-phenyl-1H-imidazole-4-carbonitrile] | 1.1 ± 0.2 | 1.0 ± 0.2 | 0.7 ± 0.3
2 | CCOCc1nc(C(=N)N)c(-c2ccccc2)n1CC(C)(C)O [Compound 39, 2-(ethoxymethyl)-1-(2-hydroxy-2-methylpropyl)-5-phenyl-1H-imidazole-4-carboxamidine] | 1.0 ± 0.2 | 0.8 ± 0.1 | 0.7 ± 0.2
3 | CCOCc1nc(C(=O)OC)c(-c2ccccc2)n1CC(C)(C)O [Compound 42, methyl 2-(ethoxymethyl)-1-(2-hydroxy-2-methylpropyl)-5-phenyl-1H-imidazole-4-carboxylate] | 0.9 ± 0.2 | 0.9 ± 0.2 | 0.9 ± 0.1
4 | CCOCc1nc(COC)c(-c2ccccc2)n1CC(C)(C)O [Compound 44, 1-[2-(ethoxymethyl)-4-(methoxymethyl)-5-phenyl-1H-imidazole-1-yl]-2-methylpropan-2-ol] | 1.0 ± 0.3 | 0.9 ± 0.2 | 0.8 ± 0.2
5 | CCOCc1nc(C(C)C)c(-c2ccccc2)n1CC(C)(C)O [Compound 48, 1-[2-(ethoxymethyl)-5-phenyl-4-(prop-2-yl)-1H-imidazole-1-yl]-2-methylpropan-2-ol] | 0.9 ± 0.2 | 0.7 ± 0.1 | 0.8 ± 0.3
6 | CCOCc1ncc(-c2ccccc2)n1CC(C)(C)O [Compound 50, 1-[2-(ethoxymethyl)-5-phenyl-1H-imidazole-1-yl]-2-methylpropan-2-ol] | 1.1 ± 0.3 | 1.0 ± 0.1 | 0.9 ± 0.2

Continued, in another order:

Row | Remaining R848-induced TLR8 signaling (normalized activity; ligand+DMSO = 1, untreated = 0) (TLR8) | TLR7 (normalized inhibitory effect on R848-induced signaling) (TLR7) | SMILES | WST1 (normalized toxicity effect) (HEK-Blue hTLR8 cell line)
7 | 0.7 ± 0.1 | 1.0 ± 0.1 | CCOCc1nc(C(N)=O)c(-c2ccccc2)n1CC(C)(C)O [Compound 40, 2-(ethoxymethyl)-1-(2-hydroxy-2-methylpropyl)-5-phenyl-1H-imidazole-4-carboxamide] | 0.8 ± 0.3
8 | 1.2 + 0.2 | 1.1 ± 0.2 | CCOCc1nc(C=O)c(-c2ccccc2)n1CC(C)(C)O [Compound 41, 2-(ethoxymethyl)-1-(2-hydroxy-2-methylpropyl)-5-phenyl-1H-imidazole-4-carbaldehyde] | 0.7 ± 0.2
9 | 1.0 ± 0.2 | 0.9 ± 0.2 | CCOCc1nc(CO)c(-c2ccccc2)n1CC(C)(C)O [Compound 43, 1-[2-(ethoxymethyl)-4-(hydroxymethyl)-5-phenyl-1H-imidazole-1-yl]-2-methylpropan-2-ol] | 0.8 ± 0.1
10 | 0.8 ± 0.2 | 0.9 ± 0.1 | CCOCc1nc(C)c(-c2ccccc2)n1CC(C)(C)O [Compound 45, 1-[2-(ethoxymethyl)-4-methyl-5-phenyl-1H-imidazole-1-yl]-2-methylpropan-2-ol] | 0.8 ± 0.3
11 | 1.0 ± 0.2 | 0.8 ± 0.2 | CCOCc1nc(CF)c(-c2ccccc2)n1CC(C)(C)O [Compound 46, 1-[2-(ethoxymethyl)-4-(fluoromethyl)-5-phenyl-1H-imidazole-1-yl]-2-methylpropan-2-ol] | 0.9 ± 0.3
12 | 0.6 ± 0.1 | 1.1 ± 0.2 | CCOCc1nc(Cl)c(-c2ccccc2)n1CC(C)(C)O [Compound 51, 1-[4-chloro-2-(ethoxymethyl)-5-phenyl-1H-imidazole-1-yl]-2-methylpropan-2-ol] | 0.9 ± 0.2
13 | 0.3 ± 0.2 | 0.8 ± 0.2 | CCOCc1nc(Br)c(-c2ccccc2)n1CC(C)(C)O [Compound 52, 1-[4-bromo-2-(ethoxymethyl)-5-phenyl-1H-imidazole-1-yl]-2-methylpropan-2-ol] | 1.1 ± 0.3
